Experimental data: patent publication US6340704B1, “Cell differentiation inducing amide derivatives, their production and use” (Takeda Chemical Industries, Ltd., priority 1997, dated 2002)
Counter-ions that a name gives are not always drawn. Marks after values point to notes of the source that are not given here.

Key:
[1] = tested on: Mouse-derived MC3T3-E1 osteoblast cells; experiment: Induction of alkaline phosphatase (ALP) production in mouse osteoblastic cells, with or without 3 ng/ml BMP-4/7 heterodimer; format: cell-based; conditions: 72 hours; for ALP Activity (1000 × A405 ± SD) BMP Addition: medium with 3 ng/ml BMP-4/7 heterodimer; for ALP Activity (1000 × A405 ± SD) BMP Non-Addition: no BMP
Experimental: Induction of Alkaline Phosphatase (ALP) Production in Mouse Osteoblastic Cells
Mouse-derived MC3T3-E1 osteoblast cells were seeded in a 96-well microtiter plate of α-minimum essential medium containing FCS (fetal calf serum) (8000 cells/well). After two days when the growth had become confluent, the test substance diluted to various concentrations in Table 1 with the medium either containing or not containing 3 ng/ml of BMP-4/7 heterodimer (described in Japanese Patent Application No. 111255/1994) was added, and the microtiter plate was further incubated for 72 hours. The plate was washed once with a physiological saline solution, followed by addition of a substrate solution. The resulting mixture was incubated at room temperature for 15 minutes, followed by addition of 0.05N NaOH to terminate the reaction. The absorbance at 405 nm was measured.

Row | SMILES | melting point [°C] | ALP Activity (1000 × A405 ± SD) BMP Addition ([1]; compound 0.01 μM) | ALP Activity (1000 × A405 ± SD) BMP Non-Addition ([1]; compound 0.01 μM) | ALP Activity (1000 × A405 ± SD) BMP Addition ([1]; compound 0.1 μM) | ALP Activity (1000 × A405 ± SD) BMP Non-Addition ([1]; compound 0.1 μM) | ALP Activity (1000 × A405 ± SD) BMP Addition ([1]; compound 1 μM) | ALP Activity (1000 × A405 ± SD) BMP Non-Addition ([1]; compound 1 μM)
1 | CNC(=O)c1cc2ccc3c(c2c(-c2ccc(OC)cc2)c1CO)OCO3 [Example 2, N-Methyl-9-(4-methoxyphenyl)-8-hydroxymethyl-naphtho[1,2-d]-1,3-dioxole-7-carboxamide] | 187 to 190 | 323 ± 13 1000 × A405 | 80 ± 2 1000 × A405 | 354 ± 15* 1000 × A405 | 95 ± 7* 1000 × A405 | 478 ± 17* 1000 × A405 | 162 ± 18* 1000 × A405
2 | CNC(=O)c1cc2ccc3c(c2c(-c2ccc(C)cc2)c1CO)OCO3 [Example 6, N-Methyl-9-(4-methylphenyl)-8-hydroxymethyl-naphtho[1,2-d]-1,3-dioxole-7-carboxamide] | 210 to 212 | 177 ± 14 1000 × A405 | 51 ± 2 1000 × A405 | 248 ± 6* 1000 × A405 | 74 ± 1* 1000 × A405 | 459 ± 35* 1000 × A405 | 168 ± 1* 1000 × A405
3 | CNC(=O)c1cc2ccc3c(c2c(-c2ccc4ccccc4c2)c1CO)OCO3 [Example 4, N-Methyl-9-(2-naphthyl)-8-hydroxymethyl-naphtho[1,2-d]-1,3-dioxole-7-carboxamide] | 207 to 210 | 301 ± 8 1000 × A405 | 86 ± 3 1000 × A405 | 389 ± 25* 1000 × A405 | 108 ± 7* 1000 × A405 | 554 ± 49* 1000 × A405 | 168 ± 4* 1000 × A405
4 | CNC(=O)c1nc2ccc(C)cc2c(-c2ccc(F)cc2F)c1CO [Example 10, N-Methyl-[3-hydroxymethyl-6-methyl-4-(2,4-difluorophenyl)quinoline]-2-carboxamide] | 140 to 141 |  |  |  |  |  | 
5 | O=C(c1cc(-c2ccc(F)cc2)c2c3c(ccc2n1)OCO3)N1CCN(Cc2ccccc2)CC1 [Example 48, N-Benzyl-N-[9-(4-fluorophenyl)-1,3-dioxolo[4,5-f]quinoline-7-carbonyl]piperazine] | 147 to 148 |  |  |  |  |  | 
6 | CNC(=O)c1cc2ccc3c(c2c(-c2ccc(OC(F)(F)F)cc2)c1CO)OCO3 [Example 24, N-Methyl-9-(4-trifluoromethoxyphenyl)-8-hydroxymethylnaphtho[1,2-d]-1,3-dioxol-7-carboxamide] | 195 to 197 |  |  |  |  |  | 
7 | CNC(=O)c1nc2ccc(C)cc2c(-c2ccccc2)c1CO [Example 9, N-methyl-(3-hydroxmethyl-6-methyl-4-phenylquinoline)-2-carboxamide] | 136 to 137 |  |  |  |  |  | 
8 | NC(=O)c1nc2ccc3c(c2c(-c2ccc4c(c2)OCO4)c1CO)OCO3 [Example 8, 9(1,3-Benzodioxole-5-yl)-8hydroxymethyl-1,3-dioxolo[4,5-f]quinoline-7-carboxamide] |  | 426 ± 28 1000 × A405 | 105 ± 22 1000 × A405 | 477 ± 15* 1000 × A405 | 134 ± 12 1000 × A405 | 570 ± 63* 1000 × A405 | 186 ± 26 1000 × A405
9 | CNC(=O)c1cc2ccc3c(c2c(-c2ccc(Cl)cc2)c1CO)OCO3 [Example 3, N-Methyl-9-(4-chlorophenyl)-8-hydroxymethyl-naphtho[1,2-d]-1,3-dioxole-7-carboxamide] | 202 to 204 |  |  |  |  |  | 
10 | Cc1c(C(N)=O)nc2ccc3c(c2c1-c1ccc2c(c1)OCO2)OCO3 [Example 22, 9-(1,3-Benzodioxole-5-yl)-8-methyl-1,3-dioxole[4,4-f]quinoline-7-carboxamide] |  | 187 ± 3 1000 × A405 | 135 ± 8* 1000 × A405 | 226 ± 6* 1000 × A405 | 149 ± 11* 1000 × A405 | 326 ± 18* 1000 × A405 | 190 ± 10* 1000 × A405
11 | CNC(=O)c1cc2ccc3c(c2c(-c2ccc(F)cc2)c1CO)OCO3 [Example 5, N-Methyl-9-(4-fluorophenyl)-8-hydroxymethyl-naphtho[1,2-d]-1,3-dioxole-7-carboxamide] | 210 to 213 | 170 ± 20 1000 × A405 | 49 ± 1 1000 × A405 | 237 ± 14* 1000 × A405 | 62 ± 3* 1000 × A405 | 431 ± 26* 1000 × A405 | 157 ± 11* 1000 × A405

Second part, led by results:

Row | melting point [°C] | SMILES | ALP Activity (1000 × A405 ± SD) BMP Addition ([1]; compound 0.01 μM) | ALP Activity (1000 × A405 ± SD) BMP Non-Addition ([1]; compound 0.01 μM) | ALP Activity (1000 × A405 ± SD) BMP Addition ([1]; compound 0.1 μM) | ALP Activity (1000 × A405 ± SD) BMP Non-Addition ([1]; compound 0.1 μM) | ALP Activity (1000 × A405 ± SD) BMP Addition ([1]; compound 1 μM) | ALP Activity (1000 × A405 ± SD) BMP Non-Addition ([1]; compound 1 μM)
12 | 206 to 208 | CNC(=O)c1cc(-c2ccc3c(c2)OCO3)c2c3c(ccc2c1)OCO3 [Example 15, N-Methyl-9-(1,3-benzodioxole-5-yl)-naphtho;[1,2,-d]-1,3-dioxole-7-carboxamide] |  |  |  |  |  | 
13 | 267 to 269 | NC(=O)c1cc(-c2ccc3c(c2)OCO3)c2c3c(ccc2c1)OCO3 [Example 14, 9-(1,3-Benzodioxole-5-yl)-naphtho[1,2-d]-1,3-dioxole-7-carboxamide] |  |  |  |  |  | 
14 | 233 to 235 | CNC(=O)c1cc2ccc3c(c2c(-c2ccc4c(c2)OCO4)c1CO)OCO3 [Example 1, N-Methyl-9-(1,3-benzodioxole-5-yl)-8-hydroxymethylnaphtho[1,2-d]-1,3-dioxole-7-carboxamide] | 193 ± 15 1000 × A405 | 50 ± 5 1000 × A405 | 213 ± 5* 1000 × A405 | 58 ± 5* 1000 × A405 | 386 ± 30* 1000 × A405 | 102 ± 5* 1000 × A405
15 | 160 to 161 | CN(C)C(=O)c1cc(-c2ccc3c(c2)OCO3)c2c3c(ccc2c1)OCO3 [Example 16, N,N-Dimethyl-9-(1,3,-benzodioxole-5-yl)-naphtho[1,2-d]-1,3,-dioxole-7-carboxamide] |  |  |  |  |  | 
16 | 187 to 189 | COc1ccc(-c2cc(C(N)=O)cc3ccc4c(c23)OCO4)cc1 [Example 11, 9(4-Methoxyphenyl)-naphtho[1,2,-d]-1,3,-dioxole-7-carboxamide] |  |  |  |  |  | 
17 | 141 to 146 | CNC(=O)c1nc2ccc3c(c2c(-c2ccc4c(c2)OCO4)c1C)OCO3 [Example 23, N-methyl-9-(1,3-benzodioxole-5yl)-8-methyl-1,3-dioxolo [4,5-f]quinoline-7-carboxamide] |  |  |  |  |  | 
18 | 233 to 235 | CNC(=O)c1cc(-c2ccc(F)cc2)c2c3c(ccc2n1)OCO3 [Example 46, 9-(4-Fluorophenyl)-N-methyl-1,3-dioxolo[4,5-F]quinoline-7-carboxamide] |  |  |  |  |  | 
19 | 233 to 240 | CN(C)CCCNC(=O)c1cc(-c2ccc3c(c2)OCO3)c2c3c(ccc2c1)OCO3 (as salt: hydrochloride) [Example 19, N-(3-Dimethylaminopropyl)-9-(1,3-benzodioxole-5-yl)-naphtho [1,2-d]-1,3-dioxole-7-carboxamide hydrochloride] |  |  |  |  |  | 
20 | 237 to 239 | Cc1c(C(N)=O)cc(-c2ccc3c(c2)OCO3)c2c3c(ccc12)OCO3 [Example 13, 9-(1,3-Benzodioxole-5-yl)-6-methyl-naphto[1,2-d]-1,3-dioxole-7-carboxamide] |  |  |  |  |  | 
21 | 207 to 209 | NC(=O)c1cc(-c2ccc(C(F)(F)F)cc2)c2c3c(ccc2c1)OCO3 [Example 12, 9-(4-Trifluromethylphenyl)-naphto[1,2-d]-1,3-dixole-7-carboxamide] |  |  |  |  |  | 
22 | 188 to 190 | NC(=O)c1cc(-c2ccc(OC(F)(F)F)cc2)c2c3c(ccc2c1)OCO3 [Example 25, 9-(4-Trifluoromethoxyphenyl)naphtho[1,2-d]-1,3-dioxol-7-carboxamide] |  |  |  |  |  | 
23 | 222 to 224 | CNC(=O)c1cc2cc3c(cc2c(-c2ccc4c(c2)OCO4)c1CO)OCO3 [Example 7, N-Methyl-(1,3-benzodioxole-5-yl)-7-hydroxymethyl-naphto[2,3-d]-1,3-dioxole-6-carboxamide] |  |  |  |  |  | 
